Reference: patent US20230348369A1 (Cytokinetics, Inc., priority 2020, published 2023)
Where two headings read alike, the source gives them in different places.

Legend:
human NAMPT = human NAMPT (Homo sapiens, UniProt P43490); test: Human recombinant enzyme assay (NMN fluorescence biochemical assay, activation of NAMPT)
Method in brief: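 Activation of recombinant human NAMPT (6 nM) with 2.5 mM ATP, 20 μM PRPP and 150 μM nicotinamide in 50 mM HEPES pH 7.2, 1 mM DTT, 1 mM CHAPS, 50 mM NaCl, 100 mM MgCl2; 60 min, ambient temperature. NMN formed was derivatized with acetophenone/KOH/formic acid, fluorescence read at 355/460 nm after 40 min.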

endogenous NAMPT = target: T1, endogenous NAMPT (Homo sapiens, UniProt P43490); test: Cellular NAD+ modulation assay in neuroblastoma SH-SY5Y cells; assay type: cell-based
T1 construct: stimulate the endogenous NAMPT in a native cellular environment; endogenous in cells; host or cells: SH-SY5Y neuroblastoma cells
T1 sequence (P43490 whole entry): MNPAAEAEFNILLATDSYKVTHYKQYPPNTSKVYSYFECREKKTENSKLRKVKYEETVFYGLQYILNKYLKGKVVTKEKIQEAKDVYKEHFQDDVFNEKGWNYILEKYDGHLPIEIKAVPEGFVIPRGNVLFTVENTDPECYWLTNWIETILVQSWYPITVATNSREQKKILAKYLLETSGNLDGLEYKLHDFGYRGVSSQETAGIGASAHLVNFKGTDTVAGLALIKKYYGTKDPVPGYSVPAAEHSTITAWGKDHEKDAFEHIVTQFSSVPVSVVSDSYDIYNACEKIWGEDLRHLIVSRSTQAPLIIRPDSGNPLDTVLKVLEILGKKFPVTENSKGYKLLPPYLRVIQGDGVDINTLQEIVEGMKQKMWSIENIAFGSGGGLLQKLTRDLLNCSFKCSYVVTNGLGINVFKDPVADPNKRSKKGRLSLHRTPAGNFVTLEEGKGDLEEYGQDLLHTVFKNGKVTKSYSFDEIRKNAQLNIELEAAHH
Method: The compounds described herein were also assayed for their ability to stimulate the endogenous NAMPT in a native cellular environment in the cellular NAD+ modulation assay, which measures the ability of the compound to modulate cellular NAD levels. Increased levels of NAD are expected by compounds that permeate the cells and activate the catalytic activity of the endogenous NAMPT.
Neuroblastoma SH-SY5Y cells were grown in 1:1 mixture of Eagle's Minimum Essential Medium and F12 Medium, along with 10% fetal bovine serum, in a humidified incubator with an atmosphere of 95% air and 5% CO2 at 37° C. The assays were initiated by plating 20 μL of SH-SY5Y cells in culture medium with 0.1% fetal bovine serum, at a density of 5000 cells per well to a 384-well Corning™ BioCoat™ Poly-D-Lysine Multiwell Plates. The plates were incubated in the 37° C. incubators for a period of 5 hours. Compounds in DMSO were added to the plates in a volume of 120 nL using the Labcyte Echo Liquid Handlers. […] The plates are then incubated for 40 hours. 30 μL of a readout-solution containing 0.2 U/mL Diaphorase enzyme, 40 uM resazurin, 10 uM FMN, 0.8 U/mL Alcohol dehydrogenase, 3% ethanol, 0.4 mg/mL bovine serum albumin, 0.2% Triton X-100 in 100 mM Tris-HCl, 30 mM EDTA, pH 8.4. The plates were read for fluorescence (Excitation/Emission=540 nm/590 nm) using an EnVision plate reader after 60 mins of incubation at ambient temperature.

[1] = Table A, human recombinant NAMPT, NMN formation, 60 min
[2] = Table A, human recombinant NAMPT, NMN formation, 60 min, read-out: EC50 Human
[3] = Table B, SH-SY5Y cells, cellular NAD levels, doxorubicin, 40 hours
[4] = Table B, SH-SY5Y cells, cellular NAD levels, doxorubicin, 40 hours, read-out: EC50

Sequence of human NAMPT (P43490 whole entry): as above

SMILES | AC1.4 Human (human NAMPT; [1]) [µM] | EC50 (human NAMPT; [2]) [µM] | also measured
CC(C)(O)CN1CCN(C(=O)[C@H]2C[C@@]3(C[C@H](NC(=O)NCc4ccc(Cl)cc4)C3)C2)CC1 (single isomer, unassigned) [Compound 187] | – | – | EC50 (human NAMPT): 0.6 µM; EC50 (endogenous NAMPT): 0.2 µM
COc1ccc(CNC(=O)NC2CC3(C2)CC(C(=O)N(C)C2CCOC2)C3)cc1 (stereo in doubt) [Compound 79, (R)-6-(3-(4-methoxybenzyl)ureido)-N-methyl-N-(tetrahydrofuran-3-yl)spiro[3.3]heptane-2-carboxamide] | 1.4 | 39.8 | AC0.3 (endogenous NAMPT; [3]): 5.8 µM; EC50 (endogenous NAMPT; [4]): 5.8 µM
COc1ccc(CNC(=O)NC2CC3(C2)CC(NC(=O)OC(C)(C)C)C3)cc1 (stereo not shown) [Compound 7, tert-butyl (6-(3-(4-methoxybenzyl)ureido)spiro[3.3]heptan-2-yl)carbamate] | 5.1 | 26.3 | AC0.3 (endogenous NAMPT; [3]): 2.4 µM; EC50 (endogenous NAMPT; [4]): 4.7 µM
Cc1ccccc1C(=O)N1CCC(CCCCNC(=O)NCc2ccncc2)CC1 [Compound 323, 1-(4-(1-(2-methylbenzoyl)piperidin-4-yl)butyl)-3-(pyridin-4-ylmethyl)urea] | 0.2 | 1.6 | –
[2H]C([2H])(NC(=O)NCCCCC1CCN(C(=O)c2ccccc2)CC1)c1cnco1 [Compound 324, 1-(4-(1-benzoylpiperidin-4-yl)butyl)-3-(oxazol-5-ylmethyl-d2)urea] | 0.2 | 1.9 | –
COc1ccc(CNC(=O)NC2CC3(C2)CC(c2nnc(-c4ccccc4)o2)C3)cc1 (stereo not shown) [Compound 325, 1-(4-Methoxybenzyl)-3-(6-(5-phenyl-1,3,4-oxadiazol-2-yl)spiro[3.3]heptan-2-yl)urea] | 2.4 | 30.6 | –
COc1ccc(CNC(=O)NC2CC3(C2)CC(c2nc(-c4ccccc4)co2)C3)cc1 (stereo not shown) [Compound 326, 1-(4-methoxybenzyl)-3-(6-(4-phenyloxazol-2-yl)spiro[3.3]heptan-2-yl)urea] | 4.5 | – | –
COc1ccc(CNC(=O)NC2CC3(C2)CC(c2nc4ccccc4o2)C3)cc1 (stereo not shown) [Compound 327, 1-(6-(benzo[d]oxazol-2-yl)spiro[3.3]heptan-2-yl)-3-(4-methoxybenzyl)urea] | 4.1 | – | EC50 (human NAMPT): 17.4 µM
O=C(NCc1ccc(Cl)cc1)NC1CC2(C1)CC(C(O)c1ccccc1)C2 (stereo not shown) [Compound 328, 1-(4-chlorobenzyl)-3-(6-(hydroxy(phenyl)methyl)spiro[3.3]heptan-2-yl)urea] | 1.2 | 4.3 | –
O=C(NCc1ccc(Cl)cc1)NC1CC2(CC(Cc3cnccn3)C2)C1 (stereo not shown) [Compound 331, 1-(4-chlorobenzyl)-3-(6-(pyrazin-2-ylmethyl)spiro[3.3]heptan-2-yl)urea] | 2.2 | 1.3 | –
N#Cc1cnn(CC2CC3(C2)CC(NC(=O)NCc2ccc(Cl)cc2)C3)c1 (stereo not shown) [Compound 333, 1-(4-chlorobenzyl)-3-(6-((4-cyano-1H-pyrazol-1-yl)methyl)spiro[3.3]heptan-2-yl)urea] | 1.8 | – | EC50 (human NAMPT): 4.4 µM
COc1ccc(CNC(=O)NC2CC3(CC(Cc4ccc(C)cc4)C3)C2)cc1 (stereo not shown) [Compound 334, 1-(4-methoxybenzyl)-3-(6-(4-methylbenzyl)spiro[3.3]heptan-2-yl)urea] | 2.3 | 2.7 | –
COc1ccc(CNC(=O)NC2CC3(CC(Cc4cccc(C)c4)C3)C2)cc1 (stereo not shown) [Compound 335, 1-(4-Methoxybenzyl)-3-(6-(3-methylbenzyl)spiro[3.3]heptan-2-yl)urea] | 1.1 | 2.2 | –
COc1ccc(CNC(=O)NC2CC3(CC(Cc4ccccc4C)C3)C2)cc1 (stereo not shown) [Compound 336, 1-(4-methoxybenzyl)-3-(6-(2-methylbenzyl)spiro[3.3]heptan-2-yl)urea] | 0.7 | 2.1 | –
COc1ccc(CNC(=O)NC2CC3(CC(Cc4ccc(C)nc4)C3)C2)cc1 (stereo not shown) [Compound 337, 1-(4-methoxybenzyl)-3-(6-((6-methylpyridin-3-yl)methyl)spiro[3.3]heptan-2-yl)urea] | 1.0 | 26.1 | –
Cc1ccc(C(C)(O)C2CC3(CC(NC(=O)NCc4ccc(Cl)cc4)C3)C2)cn1 (stereo not shown) [Compound 338, 1-(4-chlorobenzyl)-3-(6-(1-hydroxy-1-(6-methylpyridin-3-yl)ethyl)spiro[3.3]heptan-2-yl)urea] | 6.4 | 10.3 | –

SMILES | AC1.4 Human (human NAMPT; [1]) [µM] | EC50 (human NAMPT; [2]) [µM] | also measured
O=C(NCc1ccc(Cl)cc1)NC1CC2(CC(Cn3cncn3)C2)C1 (stereo not shown) [Compound 339, 1-(6-((1H-1,2,4-triazol-1-yl)methyl)spiro[3.3]heptan-2-yl)-3-(4-chlorobenzyl)urea] | 4.6 | 6.5 | –
O=C(NCc1ccc(Cl)cc1)NC1CC2(CC(Cc3ncccn3)C2)C1 (stereo not shown) [Compound 340, 1-(4-chlorobenzyl)-3-(6-(pyrimidin-2-ylmethyl)spiro[3.3]heptan-2-yl)urea] | 3.7 | – | EC50 (human NAMPT): 5.6 µM
O=C(NCc1ccc(Cl)cc1)NC1CC2(C1)CC(Oc1ccncc1)C2 (stereo not shown) [Compound 341, 1-(4-chlorobenzyl)-3-(6-(pyridin-4-yloxy)spiro[3.3]heptan-2-yl)urea] | 3.9 | 2 | –
CS(=O)(=O)C1CC2(CC(NC(=O)NCc3ccc(Cl)cc3)C2)C1 (stereo not shown) [Compound 342, 1-(4-chlorobenzyl)-3-(6-(methylsulfonyl)spiro[3.3]heptan-2-yl)urea] | 33.1 | 56.1 | –
O=C(NCc1ccc(Cl)cc1)NC1CC2(C1)CC(Oc1cccnc1)C2 (stereo not shown) [Compound 343, 1-(4-chlorobenzyl)-3-(6-(pyridin-3-yloxy)spiro[3.3]heptan-2-yl)urea] | 3.0 | – | EC50 (human NAMPT): 5.6 µM
COc1ccc(CNC(=O)NC2CC3(C2)CC(Oc2cccnc2)C3)cc1 (stereo not shown) [Compound 344, 1-(4-methoxybenzyl)-3-(6-(pyridin-3-yloxy)spiro[3.3]heptan-2-yl)urea] | 3.1 | 34.9 | –
O=C(NCc1ccc(Cl)cc1)NC1CC2(CC(Cc3cccnc3)C2)C1 (stereo not shown) [Compound 345, 1-(4-chlorobenzyl)-3-(6-(pyridin-3-ylmethyl)spiro[3.3]heptan-2-yl)urea] | 1.6 | 0.6 | –
Cc1ccc(CC2CC3(C2)CC(NC(=O)NCc2ccc(Cl)cc2)C3)cn1 (stereo not shown) [Compound 347, 1-(4-chlorobenzyl)-3-(6-((6-methylpyridin-3-yl)methyl)spiro[3.3]heptan-2-yl)urea] | 2.2 | 2.4 | –
O=C(NCc1ccc(Cl)cc1)NC1CC2(C1)CC(OCc1ccncc1)C2 (stereo not shown) [Compound 348, 1-(4-chlorobenzyl)-3-(6-(pyridin-4-ylmethoxy)spiro[3.3]heptan-2-yl)urea] | 5.0 | 5.9 | –
COc1ccc(CNC(=O)NC2CC3(C2)CC(OCc2ccncc2)C3)cc1 (stereo not shown) [Compound 349, 1-(4-methoxybenzyl)-3-(6-(pyridin-4-ylmethoxy)spiro[3.3]heptan-2-yl)urea] | 6.9 | 40.3 | –
O=C(NCc1ccc(Cl)cc1)NC1CC2(C1)CC(OCc1cccnc1)C2 (stereo not shown) [Compound 350, 1-(4-chlorobenzyl)-3-(6-(pyridin-3-ylmethoxy)spiro[3.3]heptan-2-yl)urea] | 1.7 | 6.1 | –
COc1ccc(CNC(=O)NC2CC3(C2)CC(OCc2cccnc2)C3)cc1 (stereo not shown) [Compound 351, 1-(4-methoxybenzyl)-3-(6-(pyridin-3-ylmethoxy)spiro[3.3]heptan-2-yl)urea] | 4.0 | 38.7 | –
O=C(NCc1ccc(Cl)cc1)NC1CC2(CC(CS(=O)(=O)c3ccccc3)C2)C1 (stereo not shown) [Compound 352, 1-(4-chlorobenzyl)-3-(6-((phenylsulfonyl)methyl)spiro[3.3]heptan-2-yl)urea] | 6.0 | 8 | –
O=C(NCc1ccc(Cl)cc1)NC1CC2(CC(CS(=O)(=O)c3cccnc3)C2)C1 (stereo not shown) [Compound 353, 1-(4-chlorobenzyl)-3-(6-((pyridin-3-ylsulfonyl)methyl)spiro[3.3]heptan-2-yl)urea] | 5.3 | 16.9 | –
O=C(NCc1ccc(Cl)cc1)N[C@H]1C[C@]2(CCN(C(=O)N3CCC(N4CCCCC4)CC3)C2)C1 [Compound 354, 1-((2r,4s)-6-([1,4′-bipiperidine]-1′-carbonyl)-6-azaspiro[3.4]octan-2-yl)-3-(4-chlorobenzyl)urea] | 4.2 | – | –
